According to ChEMBL document CHEMBL4266060, “Structure-Property Relationship Studies of Influenza A Virus AM2-S31N Proton Channel Blockers” (ACS Med Chem Lett, 2018):
The source made the active and inactive calls. No cut-off for these calls is given here.

Key:
[1] = tested on: Influenza A virus; assay: microbe, parasite or virus in culture; conditions: A/California/07/2009(H1N1), MDCK
Description: Antiviral activity against Influenza A virus (A/California/07/2009(H1N1)) infected in MDCK cells expressing ST6Gal-1 assessed as reduction in plaque formation pretreated with virus for 30 mins followed by viral infection measured after 2 to 3 days by naphthalene black dye based assay

[2] = tested on: Influenza A virus; format: functional, A/California/07/2009(H1N1), MDCK
[3] = tested on: Influenza A virus; assay: Inhibition of Influenza A virus AM2 expressed in xenopus laevis frog oocytes assessed as inhibition of channel current at 100 uM after 2 mins by two-electrode voltage clamp assay relative to control; format: cell-based
[4] = Cytotoxicity against MDCK cells after 48 hrs by neutral red uptake assay; format: cell-based, Canis lupus familiaris; conditions: dog
[5] = Half life in mouse liver microsomes at 1 uM in presence of NADPH generating system by LC-MS/MS analysis; format: ADME, microsome
[6] = Half life in mouse liver microsomes at 0.5 uM; format: ADME, microsome; conditions: for half-life at 0.5 µM: liver microsomes
[7] = Intrinsic clearance in mouse liver microsomes at 1 uM in presence of NADPH generating system by LC-MS/MS analysis; format: ADME, microsome; conditions: read-out: CLH
[8] = Intrinsic clearance in mouse liver microsomes at 0.5 uM; format: ADME, microsome; conditions: read-out: CLH
[9] = Permeability of the compound by PAMPA; format: ADME; conditions: read-out: permeability
[10] = Half life in human liver microsomes at 1 uM in presence of NADPH generating system by LC-MS/MS analysis; format: ADME, microsome
[11] = tested on: Influenza A virus; format: functional, organism-based; conditions: A/California/07/2009(H1N1), MDCK, 30 nM
[12] = tested on: Influenza A virus; format: functional, organism-based; conditions: A/California/07/2009(H1N1), A549, 30 nM
[13] = tested on: Influenza A virus; format: functional, organism-based; conditions: A/California/07/2009(H1N1), MDCK, 30 nM; remark: listed apart in the source
[14] = tested on: Influenza A virus; format: functional, A/California/07/2009(H1N1), A549
[15] = tested on: Influenza A virus; format: functional, organism-based; conditions: A/California/07/2009(H1N1), MDCK, 10 uM
[16] = tested on: Influenza A virus; format: functional, A/California/07/2009(H1N1), A549; remark: listed apart in the source
[17] = tested on: Influenza A virus; format: functional, A/California/07/2009(H1N1), A549; remark: listed apart in the source

SMILES	EC50 [1] [µM]	Activity [2] [%]	inhibition [3] [%]	CC50 at 48 h [4] [µM]	half-life at 1 µM [5] [min]	CLint scaled at 1 µM [7] [mL/min/kg]	further results
OC12CC3CC(C1)CC(NCc1csc(Br)c1)(C3)C2	5.1	31.3	1.9	364	–	–	–
Brc1ccc(CNC23CC4CC(CC(C4)C2)C3)s1	2.9	3.2	77.2	123	> 145	< 38	half-life at 0.5 µM [6]: > 145 min; CLint scaled at 0.5 µM [8]: < 38 mL/min/kg
OC12CC3CC(C1)CC(NCc1cnc(Br)s1)(C3)C2	–	102.1	2.7	–	–	–	–
OC12CC3CC(C1)CC(NCc1cnc(N4CCCCC4)nc1)(C3)C2	–	–	–	–	–	–	half-life at 0.5 µM [6]: 19.4 min; CLint scaled at 0.5 µM [8]: 283 mL/min/kg
OC12CC3CC(C1)CC(NCc1ccc(Br)s1)(C3)C2	1.1	3.9	11.4	238	> 145	< 38	Papp [9]: 25.3 ×10⁻⁶ cm/s; half-life at 1 µM [10]: > 145 min
COC(=O)c1ccc(-c2ccc(CNC34CC5CC(CC(O)(C5)C3)C4)s2)cc1	–	52	0	–	–	–	–
c1csc(-c2ccc(CNC34CC5CC(CC(C5)C3)C4)s2)c1	12.2	58.5	17.9	19.5	2.8	1940	–
COc1ccc(-c2ccc(CNC34CC5CC(CC(O)(C5)C3)C4)s2)cc1OC	–	67.5	0	–	–	–	–
OC12CC3CC(C1)CC(NCc1ccc(-c4ccccc4Cl)s1)(C3)C2	2.5	20.4	0	65.2	–	–	–
Ic1ccc(CNC23CC4CC(CC(C4)C2)C3)s1	1	1.8	91	70.2	24.5	224	–
OC12CC3CC(C1)CC(NCc1ccc(-c4ccccc4)s1)(C3)C2	2.1	27.9	0.3	80.5	–	–	–
CSc1ccccc1-c1ccc(CNC23CC4CC(CC(O)(C4)C2)C3)s1	–	47.7	0	–	–	–	–
c1csc(-c2cc(CNC34CC5CC(CC(C5)C3)C4)no2)c1	–	0	–	–	–	–	–
OC12CC3CC(C1)CC(NCc1ccc(N4CCCCCC4)cn1)(C3)C2	–	–	–	–	–	–	half-life at 0.5 µM [6]: 22.1 min; CLint scaled at 0.5 µM [8]: 248 mL/min/kg
c1nc(N2CCCCCC2)ncc1CNC12CC3CC(CC(C3)C1)C2	–	–	–	–	–	–	half-life at 0.5 µM [6]: 0.8 min; CLint scaled at 0.5 µM [8]: 6760 mL/min/kg
Brc1ccc(CNC23CCC4CC(CC(C4)C2)C3)s1	0.6	0	86.5	43.1	9.1	604	–
C[Si](C)(C)c1ccc(CNC23CC4CC(CC(O)(C4)C2)C3)cc1	–	–	–	–	–	–	t1/2 ([6]; microsomes, 0.5 µM): 4.4 min
OC12CC3CC(C1)CC(NCc1ccc(-c4ccc(F)cc4F)s1)(C3)C2	–	44.1	0	–	–	–	–
Brc1ccc(CNC23CC4CC(CC(C4)C2)C3)[se]1	2.2	0	56.1	82.1	32.1	171	–
CCC(CC)O[C@@H]1C=C(C(=O)O)C[C@H](N)[C@H]1NC(C)=O [OSELTAMIVIR CARBOXYLATE]	0.0024	–	–	> 20	–	–	Activity [11]: Active; Activity [12]: inactive; Activity [13]: inactive
OC12CC3CC(C1)CC(NCc1ccc(I)s1)(C3)C2	0.9	2.5	3.2	317	> 145	< 38	Activity [14]: 2.1 log10PFU/ml; Activity [15]: Active; Papp [9]: 20.4 ×10⁻⁶ cm/s; half-life at 1 µM [10]: > 145 min; Activity [16]: 1.8 log10PFU/ml; Activity [17]: 2.9 log10PFU/ml
OC12CC3CC(C1)CC(NCc1nc(Br)cs1)(C3)C2	–	108	3.9	–	–	–	–
COc1ncc(-c2ccc(CNC34CC5CC(CC(O)(C5)C3)C4)s2)cn1	–	74	0	–	–	–	–
COc1ccc(-c2ccc(CNC34CC5CC(CC(O)(C5)C3)C4)s2)cn1	–	40.5	0	–	–	–	–
OC12CC3CC(C1)CC(NCc1cc(Br)cs1)(C3)C2	3.1	31.4	6.5	381	101	54.5	–
